{"source": "patent US12492212B2", "about": "“Substituted pyrazolecarboxamides as sting activators” (Shanghai Institute of Materia Medica, Chinese Academy of …, priority 2019, dated 2025)", "key": {"STING [1]": {"molecular_target": "T1, STING (Homo sapiens, UniProt Q86WV6)", "T1 construct": "host or cells: human PBMCs", "T1 sequence (Q86WV6 whole entry H232R)": "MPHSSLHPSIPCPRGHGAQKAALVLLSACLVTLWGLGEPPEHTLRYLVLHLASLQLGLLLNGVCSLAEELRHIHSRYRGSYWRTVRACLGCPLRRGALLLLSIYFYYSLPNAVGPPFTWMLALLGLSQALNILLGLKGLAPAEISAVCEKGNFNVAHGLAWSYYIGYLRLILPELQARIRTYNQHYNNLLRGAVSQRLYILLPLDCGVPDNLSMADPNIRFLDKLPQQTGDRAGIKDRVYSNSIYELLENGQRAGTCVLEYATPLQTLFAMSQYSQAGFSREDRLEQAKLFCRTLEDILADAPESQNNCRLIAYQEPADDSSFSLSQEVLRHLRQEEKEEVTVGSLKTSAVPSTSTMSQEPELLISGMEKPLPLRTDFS", "test": "IFN β release from human PBMC cells stimulated by compound (ELISA)", "assay_type": "cell-based", "settings": "LPS 10 ng/ml, cultured overnight", "description": "Example 23: Activation Effect of Compound on Type I Interferon Pathway (ISG) Produced by Human Peripheral Blood Mononuclear Cell Line PBMC Cells\nIn this experiment, the function of STING agonist was evaluated by detecting the changes of type I interferon IFN β produced by compound stimulating human peripheral blood mononuclear cell line PBMC cells (AllCells, Cat #: PB005F). Before use, cryopreserved PBMCs were thawed in RPMI1640 medium and resuscitated overnight. The test compound was dissolved into DMSO and formulated as a mother liquor with a concentration of 10 mM. Before testing, the compound was diluted to 100 times of the working concentration (the working concentration was 30, 10, 3.33, 1.11, 0.370, 0.123, 0.0412, 0.0137 uM, respectively). PBMCs were collected and adjusted to a cell concentration of 5×10^5/ml. LPS was added to PBMCs at a final concentration of 10 ng/ml. In the 96-well cell culture plate, 200 ul PBMCs (1×10^5 cells per well) were added to each well. Then 2 ul diluted compound per well (duplicate wells, the final concentration of DMSO in each well was 1%) was added. Then a pipette was used to carefully mix the cells and the compound evenly. 2 ul DMSO (1% of final concentration) was added to the negative control. The cells were cultured overnight in an incubator at 37° C. The cell culture supernatant was collected to detect the concentration of type I interferon IFN β. The concentration of IFNβ was determined by ELISA kit of solid-phase antibody R&D-MAB8144-100 and detecting antibody R&D-MAB8143-100 (Biotinylated), converted into […] concentration according to standard curve, and EC50 value was calculated by GraphPad 5.0 fitting calibration curve."}, "STING [2]": {"molecular_target": "T2, STING (Homo sapiens, UniProt Q86WV6, G230A/H232R/R293Q/R71H)", "T2 construct": "THP1-Dual cells in the experiment were purchased from InvivoGen company; host or cells: THP1-Dual cells", "T2 sequence (Q86WV6 whole entry R71H/G230A/H232R/R293Q)": "as the sequence (Q86WV6 whole entry H232R) above, with R71H, G230A, R293Q counted along it", "test": "Type I interferon pathway (ISG) luciferase reporter in human THP1-Dual cells", "assay_type": "cell-based", "settings": "test concentration 10 μM, 24 hours, ratio of LUM of compound to LUM of blank control", "description": "In this experiment, the ability of compounds to activate STING was evaluated by detecting the ability of compounds to stimulate the production of IFN-β in human peripheral blood mononuclear cell line THP1-Dual cells. THP1-Dual cells in the experiment were purchased from InvivoGen company. […] THP1-Dual cells were counted, cell concentration was adjusted to be 1×10^6/ml, and 180 μl of cells was added to each well for incubation. […] In addition, the blank group was added with 200 μl of culture solution. After 24 hours, 20 μl of culture solution was took from each well to a new bottom transparent 96-well plate, and 50 μl luciferase detection reagent QUANTI-Luc™ was added, the fluorescence value was immediately determined. […] The data were described by the ratio of the LUM of compound to the LUM of blank control."}, "CT26 colon cancer": {"test_system": "CT26 colon cancer", "test": "CT26 colon cancer subcutaneous transplantation tumor model", "assay_type": "in vivo, Balb/C female mice", "settings": "CT26, Balb/C mice, 0.1 mg/kg and 0.3 mg/kg, 1st, 4th and 7th days after grouping, vs negative control, FIG. 1", "description": "Example 25: The Efficacy Study of the Compound of the Present Invention in the CT26 Colon Cancer Subcutaneous Transplantation Tumor Model\nIn this experiment, 4-6 weeks old Balb/C female mice were used, and CT26 cells (2.5*10^5) were injected subcutaneously into axils of each mouse. The tumor growth of mice was observed. Grouping was started when the tumor volume was 50-100 mm^3. The compound 19 of the present invention and the negative control were administrated. The compound 19 of the present invention and the negative control were administrated on 1st, 4th and 7th days after grouping. The dosage of the compound 19 in each group was 0.1 mg/kg and 0.3 mg/kg respectively. The experimental results were evaluated in the form of tumor volume growth curves, and the experimental results were shown in FIG. 1."}, "EMT6 breast cancer": {"test_system": "EMT6 breast cancer", "test": "EMT6 breast cancer orthotopic transplantation tumor model", "assay_type": "in vivo, Balb/C female mice", "settings": "EMT6, Balb/C mice, 1 mg/kg, 1st, 4th and 9th days after grouping, vs negative control, FIG. 2", "description": "Example 26: The Efficacy Study of the Compound of the Present Invention in the EMT6 Breast Cancer Orthotopic Transplantation Tumor Model\nIn this experiment, 4-6 weeks old Balb/C female mice were used, and EMT6 cells (2.5*10^5) were injected subcutaneously into axils of each mouse. The tumor growth of mice was observed. Grouping was started when the tumor volume was 50-100 mm^3. The compound 19 of the present invention and the negative control were administrated on 1st, 4th and 9th days after grouping. The dosage of compound 19 of the present invention was 1 mg/kg. The experimental results were evaluated in the form of tumor volume growth curves, and the experimental results were shown in FIG. 2."}}}
{"smiles": "CCn1nc(C)cc1C(=O)Nc1nc2cc(C(N)=O)cc(OC)c2n1CCCCn1c(NC(=O)c2cc(C)nn2CC)nc2cc(C(N)=O)c3c(c21)CC(C)(C)O3", "note": "[Example 1, 1-(4-(5-carbamoyl-2-(1-ethyl-3-methyl-1H-pyrazol-5-formamido)-7-methoxy-1H-benzo[d]imidazol-1-yl)butyl)-2-(1-ethyl-3-methyl-1H-pyrazol-5-formamido)-7,7-dimethyl-7,8-dihydro-1H-benzofuran[4,5-d]imidazol-5-formamide]", "values": [{"measurement": "EC50", "setting": "STING [1]", "value": 362, "unit": "nM"}]}
{"smiles": "CCn1nc(C)cc1C(=O)Nc1nc2cc(C(N)=O)cc(OC)c2n1CCCCn1c(NC(=O)c2cc(C)nn2CC)nc2cc(C(N)=O)c3oc(C)cc3c21", "note": "[Example 2]", "values": [{"measurement": "EC50", "setting": "STING [1]", "value": 103, "unit": "nM"}, {"measurement": "Fold change (Ratio to control)", "setting": "STING [2]", "value": 53.15}]}
{"smiles": "CCn1nc(C)cc1C(=O)Nc1nc2cc(C(N)=O)cc(OC)c2n1C/C=C/Cn1c(NC(=O)c2cc(C)nn2CC)nc2cc(C(N)=O)c3oc(C)cc3c21", "note": "[Example 3, (E)-1-(4-(5-carbamoyl-2-(1-ethyl-3-methyl-1H-pyrazol-5-formamido)-7-methoxy-1H-benzo[d]imidazol-1-yl)but-2-en-1-yl)-2-(1-ethyl-3-methyl-1H-pyrazol-5-formamido)-7-methyl-1H-benzofuran[4,5-d]imidazol-5-formamide]", "values": [{"measurement": "EC50", "setting": "STING [1]", "value": 4.92, "unit": "nM"}, {"measurement": "Fold change (Ratio to control)", "setting": "STING [2]", "value": 62.82}]}
{"smiles": "COc1cc(C(N)=O)cc2nc(NC(=O)c3cc(C)nn3CC3CC3)n(C/C=C/Cn3c(NC(=O)c4cc(C)nn4CC4CC4)nc4cc(C(N)=O)c5oc(C)cc5c43)c12", "note": "[Example 5]", "values": [{"measurement": "Fold change (Ratio to control)", "setting": "STING [2]", "value": 66.65}]}
{"smiles": "COc1cc(C(N)=O)cc2nc(NC(=O)c3cc(C)nn3CC(F)(F)F)n(C/C=C/Cn3c(NC(=O)c4cc(C)nn4CC(F)(F)F)nc4cc(C(N)=O)c5oc(C)cc5c43)c12", "note": "[Example 6]", "values": [{"measurement": "Fold change (Ratio to control)", "setting": "STING [2]", "value": 86.31}]}
{"smiles": "C=CCn1nc(C)cc1C(=O)Nc1nc2cc(C(N)=O)cc(OCCCO)c2n1C/C=C/Cn1c(NC(=O)c2cc(C)nn2CC=C)nc2cc(C(N)=O)c3oc(C)cc3c21", "note": "[Example 9]", "values": [{"measurement": "Fold change (Ratio to control)", "setting": "STING [2]", "value": 148.64}]}
{"smiles": "C#CCn1nc(C)cc1C(=O)Nc1nc2cc(C(N)=O)cc(OCCCO)c2n1C/C=C/Cn1c(NC(=O)c2cc(C)nn2CC#C)nc2cc(C(N)=O)c3oc(C)cc3c21", "note": "[Example 10]", "values": [{"measurement": "Fold change (Ratio to control)", "setting": "STING [2]", "value": 13.14}]}
{"smiles": "C=CCn1nc(C)cc1C(=O)Nc1nc2cc(C(N)=O)cc(OC3COC3)c2n1C/C=C/Cn1c(NC(=O)c2cc(C)nn2CC=C)nc2cc(C(N)=O)c3oc(C)cc3c21", "note": "[Example 18]", "values": [{"measurement": "Fold change (Ratio to control)", "setting": "STING [2]", "value": 175.49}]}
{"smiles": "CCn1nc(C)cc1C(=O)Nc1nc2cc(C(N)=O)cc(OCCCN3CCOCC3)c2n1C/C=C/Cn1c(NC(=O)c2cc(C)nn2CC)nc2cc(C(N)=O)c3oc(C)cc3c21", "note": "[Example 19]", "values": [{"measurement": "Fold change (Ratio to control)", "setting": "STING [2]", "value": 90.48}, {"measurement": "anti-tumor effect (tumor volume growth curves)", "setting": "CT26 colon cancer", "value": "significant anti-tumor effect"}, {"measurement": "anti-tumor effect (tumor volume growth curves)", "setting": "EMT6 breast cancer", "value": "significant anti-tumor effect"}]}
{"smiles": "Cc1cc(C(=O)Nc2nc3cc(C(N)=O)cc(OCCCN4CCOCC4)c3n2C/C=C/Cn2c(NC(=O)c3cc(C)nn3CC(F)(F)F)nc3cc(C(N)=O)c4oc(C)cc4c32)n(CC(F)(F)F)n1", "note": "[Example 20]", "values": [{"measurement": "Fold change (Ratio to control)", "setting": "STING [2]", "value": 159.71}]}
{"smiles": "CCn1nc(C)cc1C(=O)Nc1nc2cc(C(N)=O)ccc2n1C/C=C/Cn1c(NC(=O)c2cc(C)nn2CC)nc2cc(C(N)=O)cc(OCCCO)c21", "note": "[GSK compound 1, reference compound]", "values": [{"measurement": "Fold change (Ratio to control)", "setting": "STING [2]", "value": 80.54}]}
{"smiles": "CCn1nc(C)cc1C(=O)Nc1nc2cc(C(N)=O)cc(OC)c2n1C/C=C/Cn1c(NC(=O)c2cc(C)nn2CC)nc2cc(C(N)=O)cc(OCCCN3CCOCC3)c21", "note": "[GSK compound 3, reference compound]", "values": [{"measurement": "Fold change (Ratio to control)", "setting": "STING [2]", "value": 70.83}]}
